What was measured:
[1] = molecular target: Kappa-type opioid receptor (Homo sapiens, UniProt P41145)
Mu-type opioid receptor = Mu-type opioid receptor (Rattus norvegicus, UniProt P33535)
Sequence of Mu-type opioid receptor (P33535 whole entry): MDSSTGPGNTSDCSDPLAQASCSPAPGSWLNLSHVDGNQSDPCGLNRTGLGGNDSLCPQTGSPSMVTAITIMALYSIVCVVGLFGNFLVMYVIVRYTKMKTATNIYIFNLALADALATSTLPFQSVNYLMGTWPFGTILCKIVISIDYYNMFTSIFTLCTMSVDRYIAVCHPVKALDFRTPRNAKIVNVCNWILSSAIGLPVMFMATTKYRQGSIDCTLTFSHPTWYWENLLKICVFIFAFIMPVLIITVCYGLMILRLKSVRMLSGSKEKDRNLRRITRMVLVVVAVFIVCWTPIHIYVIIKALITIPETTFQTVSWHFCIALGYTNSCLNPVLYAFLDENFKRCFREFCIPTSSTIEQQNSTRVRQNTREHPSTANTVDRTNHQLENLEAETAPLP

Sequence of Kappa-type opioid receptor (P41145 whole entry): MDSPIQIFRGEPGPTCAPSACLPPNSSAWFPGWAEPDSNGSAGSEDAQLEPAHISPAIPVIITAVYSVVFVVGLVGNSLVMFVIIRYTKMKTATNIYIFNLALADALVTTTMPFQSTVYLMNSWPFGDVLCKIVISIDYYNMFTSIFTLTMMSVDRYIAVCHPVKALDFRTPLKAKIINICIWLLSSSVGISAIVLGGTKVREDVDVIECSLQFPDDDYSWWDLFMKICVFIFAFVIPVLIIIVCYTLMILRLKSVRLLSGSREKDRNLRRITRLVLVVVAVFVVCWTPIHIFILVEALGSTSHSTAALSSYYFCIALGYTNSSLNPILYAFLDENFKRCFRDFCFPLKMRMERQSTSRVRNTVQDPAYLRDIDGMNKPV

Compound	Ki [1] [nM]	Ki (Mu-type opioid receptor) [nM]
COC(=O)C12CN(C)CC(C(=O)OC)(C1=O)C(c1cccc(F)c1)N(C)C2c1cccc(F)c1 (configuration not stated)	248	–
CN(C(=O)C=Cc1ccoc1)C1CCC2(O)C3Cc4ccc(O)c5c4C2(CCN3CC2CC2)C1O5 (configuration not stated) [CAS_213055]	–	5.2

Source: BindingDB's records for doi:10.1124/jpet.104.073668 (Temple University, 2005)
